Data reported in BigSolDB 2.1.

C1OCOCO1
solubility (mole fraction)
Conditions	in dimethoxymethane	in ethanol	in isopropanol	in methanol
288.15 K	0.32	0.136	0.17	0.167
293.15 K	0.371	0.175	0.213	0.21
297.15 K	0.416	–	–	–
298.15 K	–	0.228	0.268	0.26
300.15 K	0.452	–	–	–
303.15 K	0.489	0.29	0.331	0.318
306.15 K	0.527	–	–	–
308.15 K	–	0.362	0.417	0.398
309.15 K	0.567	–	–	–
312.15 K	0.608	–	–	–
313.15 K	–	0.457	0.511	0.517
318.15 K	–	0.591	0.643	0.645
321.15 K	–	–	–	0.8
323.15 K	–	0.74	0.793	–
328.15 K	–	0.913	0.945	–
